Where two headings read alike, the source gives them in different places. One block for each molecule: values may come before it.
Key:
[1] = biological target: T1, human recombinant AT1 receptor (Homo sapiens, UniProt P30556); experiment: Binding to AT1 receptor, radiometric scintillation assay (Eurofins ITEM24); settings: test compounds at 1 and 10 μM, ligand 125I(sar1,Ile8)-AT-II; * rows = mean of runs
T1 construct: purchased Eurofins ITEM24 (protocol number)
T1 sequence (P30556 1-359): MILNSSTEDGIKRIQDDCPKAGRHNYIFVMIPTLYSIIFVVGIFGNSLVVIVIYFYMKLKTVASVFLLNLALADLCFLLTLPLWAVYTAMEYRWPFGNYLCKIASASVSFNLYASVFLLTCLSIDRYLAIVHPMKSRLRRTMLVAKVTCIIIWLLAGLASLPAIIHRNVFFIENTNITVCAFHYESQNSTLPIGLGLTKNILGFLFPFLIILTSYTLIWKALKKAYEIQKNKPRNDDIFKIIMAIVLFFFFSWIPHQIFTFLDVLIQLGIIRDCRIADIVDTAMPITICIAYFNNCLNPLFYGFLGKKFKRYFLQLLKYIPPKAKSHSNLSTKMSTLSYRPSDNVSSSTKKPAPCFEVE

CYP2C8 = biological target: T2, CYP2C8 (Homo sapiens, UniProt P10632); experiment: CYP inhibition in human liver microsomes (Eurofins ITEMG232); format: in vitro ADME; settings: human, probe paclitaxel and amodiaquine, substrate paclitaxel and amodiaquine, read-out: CYP2C8 Inh %
T2 construct: isoform-specific substrates incubated with human liver microsomes; tissue Eurofins ITEMG232 (protocol number); host or cells: human liver microsomes
T2 sequence (P10632 1-490): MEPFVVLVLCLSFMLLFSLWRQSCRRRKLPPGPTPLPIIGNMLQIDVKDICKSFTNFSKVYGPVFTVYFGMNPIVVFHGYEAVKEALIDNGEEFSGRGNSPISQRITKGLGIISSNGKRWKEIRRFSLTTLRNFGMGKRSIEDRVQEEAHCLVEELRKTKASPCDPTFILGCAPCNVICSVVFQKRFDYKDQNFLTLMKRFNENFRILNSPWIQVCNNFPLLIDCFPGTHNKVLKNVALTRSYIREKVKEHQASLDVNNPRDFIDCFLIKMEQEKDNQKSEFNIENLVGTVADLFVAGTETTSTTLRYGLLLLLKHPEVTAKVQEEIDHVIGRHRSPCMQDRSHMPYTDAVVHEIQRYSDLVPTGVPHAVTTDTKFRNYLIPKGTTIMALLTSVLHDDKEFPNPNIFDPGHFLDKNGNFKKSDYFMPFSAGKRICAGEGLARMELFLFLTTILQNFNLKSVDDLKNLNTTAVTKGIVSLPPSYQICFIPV

CYP2C19 = biological target: T3, CYP2C19 (Homo sapiens, UniProt P33261); experiment: as above; format: in vitro ADME; settings: human, probe omeprazole, substrate omeprazole, read-out: CYP2C19 Inh %
T3 construct: isoform-specific substrates incubated with human liver microsomes; tissue Eurofins ITEMG232 (protocol number); host or cells: human liver microsomes
T3 sequence (P33261 whole entry, canonical isoform): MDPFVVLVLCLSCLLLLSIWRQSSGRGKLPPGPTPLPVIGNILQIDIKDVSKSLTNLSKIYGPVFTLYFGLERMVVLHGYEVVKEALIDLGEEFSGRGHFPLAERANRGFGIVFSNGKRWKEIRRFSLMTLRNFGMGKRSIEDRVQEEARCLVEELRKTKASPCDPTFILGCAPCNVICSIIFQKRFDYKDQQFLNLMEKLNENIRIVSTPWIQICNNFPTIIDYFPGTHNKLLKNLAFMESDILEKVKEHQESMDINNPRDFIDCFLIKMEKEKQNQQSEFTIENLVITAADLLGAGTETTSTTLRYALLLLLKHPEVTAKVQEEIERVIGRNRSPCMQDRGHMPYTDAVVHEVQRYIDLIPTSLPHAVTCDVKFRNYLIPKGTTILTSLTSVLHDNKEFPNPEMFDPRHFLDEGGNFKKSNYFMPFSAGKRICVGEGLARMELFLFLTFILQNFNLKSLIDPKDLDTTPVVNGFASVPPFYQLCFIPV

CYP2C9 [2] = biological target: T4, CYP2C9 (Homo sapiens, UniProt P11712); experiment: as above; format: in vitro ADME; parameters: isoform-specific substrates incubated with human liver microsomes; tissue Eurofins ITEMG232 (protocol number); host or cells: human liver microsomes; settings: human, probe diclofenac, substrate diclofenac, read-out: CYP2C9 Inh %
T4 sequence (P11712 whole entry, canonical isoform): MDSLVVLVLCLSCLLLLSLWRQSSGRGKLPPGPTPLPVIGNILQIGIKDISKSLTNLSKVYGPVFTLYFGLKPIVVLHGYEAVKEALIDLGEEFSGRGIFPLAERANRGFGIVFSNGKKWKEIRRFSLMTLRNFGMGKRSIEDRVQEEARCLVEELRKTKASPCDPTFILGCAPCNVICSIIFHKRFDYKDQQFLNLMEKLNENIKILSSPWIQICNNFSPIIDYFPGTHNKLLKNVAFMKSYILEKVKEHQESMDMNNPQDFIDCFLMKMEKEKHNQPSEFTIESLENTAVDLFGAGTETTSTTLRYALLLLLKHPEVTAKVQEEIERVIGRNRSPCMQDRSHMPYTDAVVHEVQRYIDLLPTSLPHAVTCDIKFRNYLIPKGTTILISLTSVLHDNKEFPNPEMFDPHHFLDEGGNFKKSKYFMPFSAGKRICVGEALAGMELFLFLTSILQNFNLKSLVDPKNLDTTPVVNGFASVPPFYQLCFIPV

CYP1A2 = biological target: T5, CYP1A2 (Homo sapiens, UniProt P05177); experiment: in vitro; format: in vitro ADME; settings: human, microsomes, human liver microsomes, substrate phenacetin, read-out: CYP1A2 Inh %
T5 construct: isoform-specific substrates incubated with human liver microsomes; tissue Eurofins ITEMG232 (protocol number); host or cells: human liver microsomes
T5 sequence (P05177 whole entry, canonical isoform): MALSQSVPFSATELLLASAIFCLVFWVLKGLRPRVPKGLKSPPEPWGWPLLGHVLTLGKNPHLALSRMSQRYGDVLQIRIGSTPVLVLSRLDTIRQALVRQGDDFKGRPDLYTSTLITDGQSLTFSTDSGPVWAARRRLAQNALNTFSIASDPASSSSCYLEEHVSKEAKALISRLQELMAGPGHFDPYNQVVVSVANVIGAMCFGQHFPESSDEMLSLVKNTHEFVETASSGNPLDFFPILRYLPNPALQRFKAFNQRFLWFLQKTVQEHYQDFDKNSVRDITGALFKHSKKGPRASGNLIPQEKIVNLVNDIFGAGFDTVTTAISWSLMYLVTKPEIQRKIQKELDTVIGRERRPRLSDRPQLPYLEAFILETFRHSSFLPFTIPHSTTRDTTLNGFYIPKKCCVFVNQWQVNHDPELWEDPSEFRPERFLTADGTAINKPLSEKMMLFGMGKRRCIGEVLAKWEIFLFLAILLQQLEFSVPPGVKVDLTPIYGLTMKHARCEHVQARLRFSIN
Procedure: The following substrates were used; CYP1A phenacetin, CYP2B36 bupropion, CYP2C8 paclitaxel and amodiaquine, CYP2C9 diclofenac, CYP2C19 omeprazole, CYP2D6 dextromethorphan, CYP3A midazolam and testosterone.
At the end of the incubation, the formation of metabolite was monitored by HPLC-MS/MS as the peak area response.

CYP2B6 = biological target: T6, CYP2B6 (Homo sapiens, UniProt P20813); experiment: CYP inhibition in human liver microsomes (Eurofins ITEMG232); format: in vitro ADME; settings: probe bupropion, substrate bupropion, read-out: CYP2B6 Inh %
T6 construct: isoform-specific substrates incubated with human liver microsomes; tissue Eurofins ITEMG232 (protocol number); host or cells: human liver microsomes
T6 sequence (P20813 1-491): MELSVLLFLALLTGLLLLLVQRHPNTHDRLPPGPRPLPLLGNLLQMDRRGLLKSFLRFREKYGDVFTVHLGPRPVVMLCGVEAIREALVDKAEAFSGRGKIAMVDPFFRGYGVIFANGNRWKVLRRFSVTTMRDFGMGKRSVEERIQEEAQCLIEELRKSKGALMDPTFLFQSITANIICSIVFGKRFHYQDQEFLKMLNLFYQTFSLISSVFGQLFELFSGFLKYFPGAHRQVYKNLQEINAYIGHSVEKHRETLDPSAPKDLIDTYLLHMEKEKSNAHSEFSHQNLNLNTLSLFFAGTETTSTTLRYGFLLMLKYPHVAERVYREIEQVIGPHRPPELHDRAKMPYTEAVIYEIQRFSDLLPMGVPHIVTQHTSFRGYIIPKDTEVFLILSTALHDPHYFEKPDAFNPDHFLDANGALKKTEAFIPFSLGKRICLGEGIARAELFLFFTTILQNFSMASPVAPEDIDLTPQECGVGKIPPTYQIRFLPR

[3] = Metabolic stability in pooled human liver microsomes; format: in vitro ADME; settings: human, pooled human liver microsomes, pooled human liver microsomes 0.5 mg/mL, 1 μM test compound, 37° C., * rows = mean of two runs
In short: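 Pooled human liver microsomes (0.5 mg/mL in PBS) preincubated ±1 mM NADPH at 37° C; test compound added at 10 min to 1 μM final. Samples at 0, 5, 15 and 60 min quenched in acetonitrile, parent quantified by LC-MS/MS against a standard curve (terfenadine internal standard). Initial metabolic rate calculated with and without NADPH.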

CYP3A4&5 = experiment: in vitro; settings: human, human liver microsomes, probe testosterone;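 note: Read-out is the metabolite generated from the probe substrate, quantified as HPLC-MS/MS peak area once incubation ends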
CYP2D6 = biological target: T7, CYP2D6 (Homo sapiens, UniProt P10635); experiment: CYP inhibition in human liver microsomes (Eurofins ITEMG232); format: in vitro ADME; settings: probe dextromethorphan, substrate dextromethorphan, read-out: CYP2D6 Inh %
T7 construct: isoform-specific substrates incubated with human liver microsomes; tissue Eurofins ITEMG232 (protocol number); host or cells: human liver microsomes
T7 sequence (P10635 whole entry, canonical isoform): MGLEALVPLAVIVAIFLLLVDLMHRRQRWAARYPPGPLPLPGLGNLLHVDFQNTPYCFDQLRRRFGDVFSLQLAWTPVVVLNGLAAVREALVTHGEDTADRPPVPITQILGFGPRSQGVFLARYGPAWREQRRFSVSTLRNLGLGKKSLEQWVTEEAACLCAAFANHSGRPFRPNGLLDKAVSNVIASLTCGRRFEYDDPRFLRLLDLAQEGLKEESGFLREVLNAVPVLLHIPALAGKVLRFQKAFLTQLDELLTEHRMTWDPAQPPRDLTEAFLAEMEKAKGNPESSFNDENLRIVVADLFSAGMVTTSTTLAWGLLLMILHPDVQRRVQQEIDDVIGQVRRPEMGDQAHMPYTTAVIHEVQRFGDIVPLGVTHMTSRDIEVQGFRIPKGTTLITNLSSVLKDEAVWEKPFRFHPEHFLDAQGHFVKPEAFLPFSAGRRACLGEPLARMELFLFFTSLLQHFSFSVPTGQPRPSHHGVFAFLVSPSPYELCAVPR

[4] = biological target: T8, human recombinant AT2 receptor (Homo sapiens, UniProt P50052); experiment: Binding to AT2 receptor, radiometric scintillation assay (Eurofins ITEM26); settings: ligand 125I CGP 42112A, * rows = mean of runs; for Ki: seven-point dose-response curve; for IC50: test compounds at 1, 10, 100 and 1000 nM, read-out: AT2 GraFit IC50
T8 construct: purchased Eurofins ITEM26 (protocol number)
T8 sequence (P50052 1-363): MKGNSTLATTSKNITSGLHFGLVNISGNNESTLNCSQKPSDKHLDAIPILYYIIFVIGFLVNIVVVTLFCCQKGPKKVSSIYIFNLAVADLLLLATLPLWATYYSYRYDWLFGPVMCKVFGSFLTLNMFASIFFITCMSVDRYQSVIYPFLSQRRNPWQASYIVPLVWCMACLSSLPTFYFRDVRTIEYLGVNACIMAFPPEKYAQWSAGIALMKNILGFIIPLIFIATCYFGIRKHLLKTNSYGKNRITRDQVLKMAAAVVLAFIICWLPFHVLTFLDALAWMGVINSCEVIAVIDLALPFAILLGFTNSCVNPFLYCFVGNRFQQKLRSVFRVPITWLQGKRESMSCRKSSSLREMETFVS

CYP3A4 [5] = biological target: T9, CYP3A4 (Homo sapiens, UniProt P08684); experiment: CYP inhibition in human liver microsomes (Eurofins ITEMG232), midazolam substrate; format: in vitro ADME; parameters: isoform-specific substrates incubated with human liver microsomes; tissue Eurofins ITEMG232 (protocol number); host or cells: human liver microsomes; settings: human, probe midazolam, read-out: CYP3A4 midazolam Inh %
T9 sequence (P08684 whole entry, canonical isoform): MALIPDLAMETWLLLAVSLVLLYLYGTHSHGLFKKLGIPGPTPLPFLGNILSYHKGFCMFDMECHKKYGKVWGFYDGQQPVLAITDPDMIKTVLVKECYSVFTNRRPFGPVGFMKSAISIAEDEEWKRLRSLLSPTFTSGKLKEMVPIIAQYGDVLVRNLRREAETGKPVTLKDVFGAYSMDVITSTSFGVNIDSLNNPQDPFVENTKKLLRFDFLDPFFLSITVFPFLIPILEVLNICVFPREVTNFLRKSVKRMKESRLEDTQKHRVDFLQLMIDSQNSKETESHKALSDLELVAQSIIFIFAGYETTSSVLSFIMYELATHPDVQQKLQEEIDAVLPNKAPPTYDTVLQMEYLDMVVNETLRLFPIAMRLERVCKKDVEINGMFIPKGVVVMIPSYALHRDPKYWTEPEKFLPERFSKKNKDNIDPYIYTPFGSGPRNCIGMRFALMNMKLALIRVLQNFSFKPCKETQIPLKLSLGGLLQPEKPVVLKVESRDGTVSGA

CYP2C9 [6] = biological target: T4, CYP2C9; experiment: CYP inhibition of C21 found during development; format: in vitro ADME; settings: statement in background
CYP3A4 [7] = biological target: T9, CYP3A4; experiment: CYP inhibition of C21 found during development; format: in vitro ADME; settings: statement in background
[8] = Metabolic hydrolysis of C21 found during development; format: in vitro ADME; settings: statement in background
[9] = with 1 mM NADPH, read-out: T1/2, + NaDPH
[10] = without NADPH, read-out: T1/2, no NaDPH

IC50 [1]: 1700 nM
inhibition at 10 µM (CYP2C8): 89.6%
inhibition at 10 µM (CYP2C19): 48.9%
inhibition at 10 µM (CYP2C9 [2]): 82.3%
inhibition at 10 µM (CYP1A2): 16.7%
inhibition at 10 µM (CYP2B6): 35.8%
half-life at 1 μM [3, 9]: 58 min
half-life at 1 μM [3, 10]: > 60 min
inhibition at 10 µM (CYP3A4&5): -41.8%
inhibition at 10 µM (CYP2D6): 18.4%
Ki [4]: 2.08 nM
IC50 [4]: 4.17 nM
inhibition at 10 µM (CYP3A4 [5]): 14.6%
Structure (SMILES): CC(C)Cc1ccc(S(=O)(=O)Nc2ncc(C#N)cn2)c(-c2ccc(Cn3ccnc3C(C)(C)C)c(F)c2)c1 [Example 12, 4′-((2-(tert-Butyl)-1H-imidazol-1-yl)methyl)-N-(5-cyanopyrimidin-2-yl)-3′-fluoro-5-isobutyl-[1,1′-biphenyl]-2-sulfonamide]

IC50 [1]: 22700 nM
inhibition at 10 µM (CYP2C8): 40.9%
inhibition at 10 µM (CYP2C19): 48%
inhibition at 10 µM (CYP2C9 [2]): 69%
inhibition at 10 µM (CYP1A2): 10.7%
inhibition at 10 µM (CYP2B6): 12.5%
half-life at 1 μM [3, 9]: 40 min
half-life at 1 μM [3, 10]: > 60 min
inhibition at 10 µM (CYP3A4&5): 28.1%
inhibition at 10 µM (CYP2D6): 20.1%
Ki [4]: 3.75 nM
IC50 [4]: 7.5 nM
inhibition at 10 µM (CYP3A4 [5]): 47.5%
Structure (SMILES): Cc1cnc(NS(=O)(=O)c2ccc(CC(C)C)cc2-c2ccc(Cn3ccnc3C(C)(C)C)cc2)nc1 [Example 20, 4′-((2-(tert-Butyl)-1H-imidazol-1-yl)methyl)-5-isobutyl-N-(5-methylpyrimidin-2-yl)-[1,1′-biphenyl]-2-sulfonamide]

IC50 [1]: 58700 nM
inhibition at 10 µM (CYP2C8): 58.1%
inhibition at 10 µM (CYP2C19): 85.7%
inhibition at 10 µM (CYP2C9 [2]): 94.7%
inhibition at 10 µM (CYP1A2): -1.1%
inhibition at 10 µM (CYP2B6): 20.5%
half-life at 1 μM [3, 9]: 8 min
half-life at 1 μM [3, 10]: > 60 min
inhibition at 10 µM (CYP3A4&5): 97%
inhibition at 10 µM (CYP2D6): 4%
Ki [4]: 71 nM
IC50 [4]: 142 nM
inhibition at 10 µM (CYP3A4 [5]): 98.2%
Structure (SMILES): COc1ncncc1NS(=O)(=O)c1ccc(CC(C)C)cc1-c1ccc(Cn2ccnc2C(C)(C)C)c(F)c1 [Example 22, 4′-((2-(tert-Butyl)-1H-imidazol-1-yl)methyl)-3′-fluoro-5-isobutyl-N-(4-methoxy-pyrimidin-5-yl)-[1,1′-biphenyl]-2-sulfonamide]

The next lines start with the molecule.

Structure (SMILES): CC(C)Cc1ccc(S(=O)(=O)Nc2ncc(F)cn2)c(-c2ccc(Cn3ccnc3C(C)(C)C)c(F)c2)c1 [Example 9, 4′-((2-(tert-Butyl)-1H-imidazol-1-yl)methyl)-3′-fluoro-N-(5-fluoropyrimidin-2-yl)-5-isobutyl-[1,1′-biphenyl]-2-sulfonamide]
IC50 [1]: 5200 nM
inhibition at 10 µM (CYP2C8): 91.6%
inhibition at 10 µM (CYP2C19): 35.8%
inhibition at 10 µM (CYP2C9 [2]): 73.1%
inhibition at 10 µM (CYP1A2): 48.6%
inhibition at 10 µM (CYP2B6): 30.4%
half-life at 1 μM [3, 9]: > 60 min
half-life at 1 μM [3, 10]: > 60 min
inhibition at 10 µM (CYP3A4&5): -14.9%
inhibition at 10 µM (CYP2D6): 16.4%
Ki [4]: 2.05 nM
IC50 [4]: 4.11 nM
inhibition at 10 µM (CYP3A4 [5]): 7.7%

Structure (SMILES): Cc1nc(NS(=O)(=O)c2ccc(CC(C)C)cc2-c2ccc(Cn3ccnc3C(C)(C)C)c(F)c2)oc1C [Example 24, 4′-((2-(tert-Butyl)-1H-imidazol-1-yl)methyl)-N-(4,5-dimethyloxazol-2-yl)-3′-fluoro-5-isobutyl-[1,1′-biphenyl]-2-sulfonamide]
IC50 [1]: 1100 nM
inhibition at 10 µM (CYP2C8): 59.6%
inhibition at 10 µM (CYP2C19): 57%
inhibition at 10 µM (CYP2C9 [2]): 52.7%
inhibition at 10 µM (CYP1A2): -19.4%
inhibition at 10 µM (CYP2B6): 26.9%
half-life at 1 μM [3, 9]: 33 min
half-life at 1 μM [3, 10]: > 60 min
inhibition at 10 µM (CYP3A4&5): 47.5%
inhibition at 10 µM (CYP2D6): 1.1%
Ki [4]: 0.72 nM
IC50 [4]: 1.45 nM
inhibition at 10 µM (CYP3A4 [5]): 36%

Structure (SMILES): CC(C)Cc1ccc(S(=O)(=O)Nc2ncccn2)c(-c2ccc(Cn3ccnc3)c(F)c2)c1 [Example 30, 4′-((1H-Imidazol-1-yl)methyl)-3′-fluoro-5-isobutyl-N-(pyrimidin-2-yl)-[1,1′-biphenyl]-2-sulfonamide]
IC50 [1]: 125 nM
inhibition at 10 µM (CYP2C8): 62.4%
inhibition at 10 µM (CYP2C19): 95.7%
inhibition at 10 µM (CYP2C9 [2]): 98%
inhibition at 10 µM (CYP1A2): 60.2%
inhibition at 10 µM (CYP2B6): 38.4%
half-life at 1 μM [3, 9]: 60 min
half-life at 1 μM [3, 10]: > 60 min
inhibition at 10 µM (CYP3A4&5): 92.2%
inhibition at 10 µM (CYP2D6): 50.9%
Ki [4]: 0.5 nM
IC50 [4]: 1.01 nM
inhibition at 10 µM (CYP3A4 [5]): 94%

Structure (SMILES): CCCCOC(=O)NS(=O)(=O)c1sc(CC(C)C)cc1-c1ccc(Cn2ccnc2)cc1 [Example C21, N-butyloxycarbonyl-3-(4-imidazol-1-ylmethylphenyl)-5-isobutylthiophene-2-sulfon-amide]
inhibition of CYP 2C9 (CYP2C9 [6]): potent inhibitor
half-life at 1 μM [3, 10]: 30 min
inhibition of CYP 3A4 (CYP3A4 [7]): potent inhibitor
inhibition at 10 µM (CYP3A4&5): 94%
metabolic hydrolysis [8]: rapidly hydrolysed to an inactive sulfonamide metabolite
